According to patent US9382306B2, “Octapeptide compounds derived from somatostatin and the therapeutic use thereof” (IPSEN PHARMA S.A.S., priority 2008, dated 2016):
In brackets after ≈: the same amount, converted by molar mass. Several values for one entry are separate records, joined by “and”; a condition that tells them apart may be missing. Identical values can stand only once. Bridge positions count the residues as written; N and C are the ends. Square brackets hold non-standard residues; d marks the D form. Peptide text beside a SMILES is read from it. ξ: configuration not given here. dPhe(4-NO2) = N[C@H](Cc1ccc([N+](=O)[O-])cc1)C(=O)O; dPhe(4-F) = N[C@H](Cc1ccc(F)cc1)C(=O)O; d2Nal = N[C@H](Cc1ccc2ccccc2c1)C(=O)O; Thr(3ξ) = CC(O)[C@H](N)C(=O)O

How the values were obtained:
[1] = molecular target: T1, somatostatin receptors sub-type 2 (Homo sapiens, UniProt P30874); experiment: Affinity for somatostatin receptors: inhibition of [125I-Tyr11]SRIF-14 binding to membranes of transfected CHO-K1 cells; conditions: competitive inhibition of [125I-Tyr11]SRIF-14 binding, 37° C.
T1 construct: expressed in transfected cells; membrane preparations
T1 sequence (P30874 whole entry): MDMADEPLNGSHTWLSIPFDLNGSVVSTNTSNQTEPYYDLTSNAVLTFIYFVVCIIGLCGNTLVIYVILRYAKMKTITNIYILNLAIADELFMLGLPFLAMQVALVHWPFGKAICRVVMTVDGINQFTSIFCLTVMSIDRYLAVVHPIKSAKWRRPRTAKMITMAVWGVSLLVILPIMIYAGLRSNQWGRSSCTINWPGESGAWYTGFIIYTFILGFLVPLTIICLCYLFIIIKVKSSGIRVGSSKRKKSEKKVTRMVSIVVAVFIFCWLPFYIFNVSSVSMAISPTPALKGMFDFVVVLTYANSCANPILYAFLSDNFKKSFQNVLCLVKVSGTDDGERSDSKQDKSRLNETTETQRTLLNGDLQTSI
Procedure: (§1) The affinity of the compounds of the invention for the somatostatin receptors is determined by measurement of the inhibition of the bond of [125I-Tyr11]SRIF-14 to membrane preparations of transfected CHO-K1 cells.
(§2) The CHO-K1 cells expressing in a stable fashion each of the sub-types of somatostatin receptors are collected with 0.5 mM of EDTA and centrifuged at 500 g for 5 minutes at 4° C. The pellet is re-suspended in phosphate buffer (PBS) and centrifuged at 500 g for 5 minutes at 4° C. The pellet is re-suspended in Tris 50 mM buffer at pH 7.4 and centrifuged at 500 g for 5 minutes at 4° C. The cells are lyzed by sonication and centrifuged at 39,000 g for 10 minutes. The pellet is re-suspended in Tris 50 mM buffer at pH 7.4, an aliquot is removed for assaying the proteins and the remainder is centrifuged at 50,000 g for 10 minutes. The membranes obtained in this last pellet are stored at −80° C.
(§3) Measurement of the competitive inhibition of the bond of [125I-Tyr11]SRIF-14 (Perkin Elmer) on each of the sub-types of somatostatin receptors is carried out in duplicate in 96-well polypropylene plates. The cell membranes (5 to 20 µg of proteins/well) are incubated with [125I-Tyr11]SRIF-14 (0.05 to 0.1 nM) for 50 to 90 minutes at 37° C. (conditions dependent on the sub-type of receptor) in a HEPES buffer medium 50 mM pH 7.4, comprising 0.2% bovine serum albumin (BSA), MgCl2 5 mM, Trasylol 200 KIU/mL, Bacitracin 0.02 mg/mL, phenylmethylsulphonyl fluoride 0.02 mg/mL.
(§4) The bound [125I-Tyr11]SRIF-14 is separated from the free [125I-Tyr11]SRIF-14 by filtration through GF/C glass fibre plates (Unifilter, Perkin Elmer) pre-impregnated with 0.1% polyethylenimine (P.E.I.), using a Filtermate 96 (Perkin Elmer). The filters are washed with Tris-HCl buffer 50 mM, pH 7.4 at 4° C. and the radioactivity present is determined using a counter (TopCount, Perkin Elmer).
(§5) The data are analyzed by computer-assisted non-linear regression using XLfit 4.2 (IDBS) software.

[2] = molecular target: T2, somatostatin receptors sub-type 5 (Homo sapiens, UniProt P35346); experiment: as above; conditions: competitive inhibition of [125I-Tyr11]SRIF-14 binding, 37° C.
T2 construct: expressed in transfected cells; membrane preparations
T2 sequence (P35346 whole entry): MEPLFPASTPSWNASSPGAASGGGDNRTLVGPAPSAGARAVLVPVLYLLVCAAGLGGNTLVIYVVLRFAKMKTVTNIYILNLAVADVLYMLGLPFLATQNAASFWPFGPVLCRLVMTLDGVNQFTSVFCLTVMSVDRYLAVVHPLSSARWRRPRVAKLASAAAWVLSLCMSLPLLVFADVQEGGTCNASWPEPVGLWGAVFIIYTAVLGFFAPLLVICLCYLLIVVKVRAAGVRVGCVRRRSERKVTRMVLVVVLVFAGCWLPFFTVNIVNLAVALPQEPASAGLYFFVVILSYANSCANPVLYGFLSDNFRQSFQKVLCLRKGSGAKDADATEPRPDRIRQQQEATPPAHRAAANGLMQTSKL
Procedure: as §1, §2, §3, §4, §5

[3] = Self-assembly study: putting peptides in solution in water, macroscopic, ATR-FTIR, TEM and SAXS analysis; assay type: physicochemical; conditions: 3 to 15% by mass of peptide in water; form and diameter of the self-assembled structure, or soluble / insoluble
Description: The procedure used comprises three stages: putting the peptides in solution and macroscopic analysis; spectroscopic and microscopic analyses of the structures formed and by small-angle X-ray scattering (SAXS) analyses.
The first stage of the characterization of the derivatives is the production of a range of concentrations from 3 to 15% by mass of peptide in water. Gelling of the solution indicates the presence of self-assembled structures which can be nanotubes but can also be fibres or other self-organised structures.
The object of this stage is to verify the presence of self-assembled structures, to characterize their self-assembly and to visualize them by microscopy.
Infrared spectroscopy makes it possible to obtain information on the method of stacking the peptides in the self-assemblies. The amide band spectrum, reflecting the absorption spectra of the carbonyl functions of the peptide backbone, gives information on the type of hydrogen bond in which these groups are involved (H bonds leading to the formation of the […], a helix or also a loop or random conformation) and consequently on the secondary and tertiary structure of the peptides in solution and self-assembled. The attenuated total reflection technique (ATR-FTIR) uses a crystal on which the solid or liquid sample is deposited. The infrared light is guided through this crystal at an angle which allows it to be reflected several times inside the crystal, which increases the sensitivity of the technique. Due to the performance of this device, it is then possible perform measurements on relatively dilute solutions. The beam penetrates a few microns into the sample deposited on the crystal, which means that only the molecules/structures which are deposited on the surface of the crystal are analyzed. Moreover, this technique is non-destructive.
The assembled structures are then visualized by transmission electron microscopy (TEM). This very powerful technique, allowing magnifications greater than 500,000 times, is one of the few techniques capable of visualizing structures on the nanometric scale. The sample is subjected to an electron beam. The visualization of the transmitted beam is produced either by a photoluminescent screen, or by a CCD camera. The sample in the microscope being under vacuum, it is samples dried after staining with uranyl salts in order to increase contrast which are observed.
The peptide in solution is firstly deposited on a copper grid covered with a film of carbon. After deposition of the materiel, the excess liquid is eliminated. In the same way, the solution of colorant, in our case uranyl acetate, is deposited on the grid, the excess is eliminated and the grid is dried in the open air. It can then be introduced into the microscope.
The samples, liquids or gels, are introduced into a capillary column and subjected to a monochromatic flow of X-rays. The intensity diffused is measured as a function of the scattering angle with respect to the incident angle.
The diffusion patterns thus obtained must be the subject of a correlation with a close theoretical model of the structures present in the sample. In the case where the peptides have self-assembled in the form of hollow nanotubes, the modelling of the experimental data with the theoretical diffusion produced by infinitely long hollow columns makes it possible to determine with precision the diameter of the columns and to estimate their wall thickness (Valery et al. in Biophysical journal, 2004, 86(4), 2484-2501 and Proc. Natl. Acad. Sci., 2003, 100(18) 10258-10262). For polydisperse, nanotubular, fibrilar, micellar or lamellar self-assemblies, it is the correlation of the spectroscopic, microscopic and XR scattering data which makes it possible to estimate a size range for the objects observed.

[4] = Solubility study before preparative HPLC; assay type: physicochemical; conditions: water-acetonitrile mixture 58:42; water-acetonitrile solution 58:42
Description: The peptide must be dissolved in a water-acetonitrile mixture in order be injected into the preparative HPLC. A solubility study is first carried out on a small quantity. It allows the optimum percentage of acetonitrile and the maximum quantity of peptide to be established. The lowest possible percentage of acetonitrile with a very high concentration of peptide and a resultant clear solution constitute ideal conditions. By way of example, the solubility of the 4-para-fluorophenylalanine derivative (Example 13 hereafter) was established at 49 g l^−1 in a water-acetonitrile solution 58:42.

Compound	Ki [1] [nM]	Ki [2] [nM]	Assembly [3]	solubility [4] [mg/mL]
CC(C)[C@@H]1NC(=O)[C@H](CCCCN)NC(=O)[C@@H](Cc2ccc(F)cc2)NC(=O)[C@H](Cc2ccc(O)cc2)NC(=O)[C@@H](NC(=O)[C@H](N)Cc2ccc3ccccc3c2)CSSC[C@@H](C(=O)N[C@H](C(N)=O)C(C)O)NC1=O (stereo partly drawn) [Example 13, H-D-2-Nal^1-cyclo(Cys^2-Tyr^3-p-F-D-Phe^4-Lys^5-Val^6-Cys^7)-Thr^8-NH2.2 CH3COOH] (H-[d2Nal]CY[dPhe(4-F)]KVC[Thr(3ξ)]-NH2; disulfide 2-7)	≤ 5	≤ 1000	monodisperse peptide nanotubes and 17 nm monodisperse nanotube	49 (≈ 45.6 mM)
CC(C)[C@@H]1NC(=O)[C@H](CCCCN)NC(=O)[C@@H](Cc2ccc([N+](=O)[O-])cc2)NC(=O)[C@H](Cc2ccc(O)cc2)NC(=O)[C@@H](NC(=O)[C@H](N)Cc2ccc3ccccc3c2)CSSC[C@@H](C(=O)N[C@H](C(N)=O)C(C)O)NC1=O (stereo partly drawn) [Example 20, H-D-2-Nal^1-cyclo(Cys^2-Tyr^3-p-nitro-D-Phe^4-Lys^5-Val^6-Cys^7)-Thr^8-NH2.2 CH3COOH] (H-[d2Nal]CY[dPhe(4-NO2)]KVC[Thr(3ξ)]-NH2; disulfide 2-7)	≤ 5	≤ 1000	monodisperse peptide nanotubes and 17.6 nm monodisperse nanotube	–
CC(C)[C@@H]1NC(=O)[C@H](CCCCN)NC(=O)[C@@H](Cc2ccc(-c3ccccc3)cc2)NC(=O)[C@H](Cc2ccc(O)cc2)NC(=O)[C@@H](NC(=O)[C@H](N)Cc2ccc3ccccc3c2)CSSC[C@@H](C(=O)N[C@H](C(N)=O)C(C)O)NC1=O (stereo partly drawn) [Example 21, H-D-2-Nal^1-cyclo(Cys^2-Tyr^3-p-Ph-D-Phe^4-Lys^5-Val^6-Cys^7)-Thr^8-NH2.2 CH3COOH]	≤ 50	≤ 100	insoluble	–
CC(C)[C@@H]1NC(=O)[C@H](CCCCN)NC(=O)[C@@H](CC2CCCCC2)NC(=O)[C@H](Cc2ccc(O)cc2)NC(=O)[C@@H](NC(=O)[C@H](N)Cc2ccc3ccccc3c2)CSSC[C@@H](C(=O)N[C@H](C(N)=O)[C@@H](C)O)NC1=O [Example 24, H-D-2-Nal^1-cyclo(Cys^2-Tyr^3-cyclohexyl-D-Ala^4-Lys^5-Val^6-Cys^7)-Thr^8-NH2.2 CH3COOH]	≤ 5	≤ 100	fibres	–
CC(C)[C@@H]1NC(=O)[C@H](CCCCN)NC(=O)[C@@H](Cc2ccc(/N=N/c3ccccc3)cc2)NC(=O)[C@H](Cc2ccc(O)cc2)NC(=O)[C@@H](NC(=O)[C@H](N)Cc2ccc3ccccc3c2)CSSC[C@@H](C(=O)N[C@H](C(N)=O)[C@@H](C)O)NC1=O [Example 25, H-D-2-Nal^1-cyclo(Cys^2-Tyr^3-p-phenylazo-D-Phe^4-Lys^5-Val^6-Cys^7)-Thr^8-NH2.2 CH3COOH]	≤ 50	≤ 1000	10 nm monodisperse nanotube	–
